Converted amounts (≈) assume the structure as drawn. “And” between values parts separate entries of the source, which are not always exact repeats. Equal entries are not always repeated. Where two headings read alike, the source gives them in different places.
How the values were obtained:
MRSA USA300LAC [1] = assay: MIC by broth microdilution (CLSI); assay type: cell-based, Staphylococcus aureus; details: for MIC: Staphylococcus aureus, MRSA USA300LAC, MHB, 37 °C, 16 h, read-out: MIC
Description: (§1) The MIC values of the alkyl pyridinol derivatives against the S. aureus strain ATCC 25923, MRSA strains ATCC 33591, ATCC BAA-44, and USA300LAC, as well as the P. aeruginosa strain ATCC 27853, were determined by following the CLSI guidelines for the broth microdilution antibiotic sensitivity testing protocol. In brief, the overnight cultures were diluted into Mueller Hinton Broth (MHB) to a final inoculum concentration of 5 × 10^5 CFU/mL (O.D600nm = 0.00001) and dispensed into a 96-well polystyrene plate (Alkali Scientific, Fort Lauderdale, FL, USA). Alkyl pyridine compounds were diluted into inoculated MHB to the indicated concentrations from stock solutions that would allow for DMSO concentrations below 5%, resulting in a total volume of 200 μL per well. The plates were subsequently incubated at 37 °C for 16 h at 300 rpm. The MIC values, which are defined as the lowest compound concentration that inhibited growth, were determined from three biological replicates.

[2] = system: S. aureus strain USA300LAC; assay: Checkerboard assay with JC-01-074 (FIC index); assay type: cell-based, Staphylococcus aureus; details: MHB, 37 °C, 20 h, antibiotic combined with JC-01-074
Description: Therefore, we tested whether the membrane-disrupting effects of JC-01-074 could increase the sensitivity of the S. aureus strain USA300LAC to antibiotics of different classes; for instance, by facilitating their uptake into the cytoplasm. […] Antibiotic concentrations were prepared by the microbroth dilution in MHB based on their MIC values (Table 1) to obtain the final concentrations as outlined in the 96-well plate scheme for each antibiotic tested (Supplementary Figure S3). Overnight USA300LAC cultures were diluted to 5 × 10^5 CFU/mL in MHB, and the growth was recorded at 37 °C and 200 rpm for 20 h in the presence and absence of the indicated antibiotic.
FICs were calculated as the ratio of the MIC of the antimicrobial in combination with the MIC of the antimicrobial alone. Interactions were categorized as synergistic (<0.5), additive or no interaction (0.5–2), and antagonistic (>2). FICs were calculated from three biological replicates.
Following previous studies, the checkerboard assay was employed to determine whether JC-01-074 had synergistic effects in combination with members of different antibiotic classes. The indicated antibiotics tested in combination were first serially diluted two-fold in MHB on a longitudinal axis in a 96-well polystyrene plate. JC-01-074 was then serially diluted two-fold across the 96-well plate horizontal axis. The plates were inoculated with USA300LAC to a final inoculum concentration of 5 x10^5 CFU/mL (O.D.600nm = 0.0001) and incubated overnight at 37 °C for 20 h. The growth was measured at 600 nm in a Tecan 200 Infinite Pro microplate reader. The fractional inhibitory concentration was calculated as follows:FIC = MICJC-01-074 + antibiotics/[…]
The classification of interactions was based on the FIC index: interactions were categorized as synergistic (FIC ≤ 0.5), additive/no interaction (FIC 0.5–2.0), and antagonistic (FIC > 2.0).

MRSA ATCC 33591 = assay: MIC by broth microdilution (CLSI); assay type: cell-based; details: Staphylococcus aureus, MHB, 37 °C, 16 h
Description: (§2) To assess the impact of the nitrogen position in our newly synthesized anaephene derivates, we analyzed their antimicrobial activities against various S. aureus strains, including ATCC 25,923 and the two methicillin-resistant S. aureus (MRSA) strains ATCC 33,591 and ATCC BAA-44. […] We determined the minimum inhibitory concentrations (MIC) of each of our compounds against the different bacterial strains by broth microdilution following the CLSI guidelines. As expected, all five compounds tested were completely ineffective against the Gram-negative P. aeruginosa strain ATCC 27,853 (Table 1).
as §1

MRSA ATCC BAA-44 = assay: MIC by broth microdilution (CLSI); assay type: cell-based; details: Staphylococcus aureus, MHB, 37 °C, 16 h
Description: as §2, §1

P. aeruginosa ATCC 27853 = assay: MIC by broth microdilution (CLSI); assay type: cell-based; details: Pseudomonas aeruginosa, ATCC27853, MHB, 37 °C, 16 h
Description: as §2, §1

S. aureus ATCC 25923 = assay: MIC by broth microdilution (CLSI); assay type: cell-based; details: Staphylococcus aureus, ATCC25923, MHB, 37 °C, 16 h
Description: as §2, §1

S. aureus/MRSA strains = assay: MIC by broth microdilution, S. aureus/MRSA strains; assay type: cell-based, Staphylococcus aureus; details: for MIC: Staphylococcus aureus, MRSA, S. aureus/MRSA strains tested, strain not singled out, read-out: MIC
Description: as §2, §1

MRSA USA300LAC [3] = assay: Minimal bactericidal concentration (MBC); assay type: cell-based, Staphylococcus aureus; details: for bactericidal or bacteriostatic effect: USA300LAC, in words
Description: In brief, 10 µL of each culture was serially diluted and plated onto prewarmed LB agar and incubated overnight at 37 °C under static conditions to observe the colony-forming units (CFUs). The concentration at which no CFUs were observed was recorded as the MBC.

[4] = system: 3T3 mouse embryonic fibroblast cells; assay: MTT cytotoxicity assay; assay type: cell-based; details: 3T3 cells; for IC50: Mus musculus, NIH3T3, 24 h
Description: To gauge the potential for toxicity of the new alkyl pyridinol derivates, we tested their cytotoxicity by examining the metabolic activity of 3T3 mouse embryonic fibroblast cells using the tetrazolium dye 3-(4,5-dimethylthiazol-2-yl)-2,5-diphenyltetrazolium bromide (MTT), as has been done before. The dye is reduced by NAD(P)H-dependent cellular oxidoreductases, resulting in the formation of the insoluble formazan with its purple color, which can be quantified. 3T3 cells were treated with different concentrations of the alkyl pyridinol compounds for 24 h, and the absorbance of the MTT-treated cell culture supernatant was measured at 540 nm. Absorbances were plotted against concentrations of the compound added (Supplementary Figure S2), and IC50, the concentration of a drug required for 50% metabolic inhibition, was calculated for each compound. […] However, the concentrations at which these compounds compromise 3T3 mouse embryonic fibroblast cells are well above their reported MICs (Table 2).
3T3 cells (male mouse embryonic fibroblast Flp-In cells, Thermo Fisher, Waltham, MA, USA) were cultured in D-MEM (Corning, Corning, NY, USA) supplemented with 10% Fetal Clone III (Cytiva Hyclone, Bengaluru, India) and L-Glutamine (Alfa Aesar, Haverhill, MA, USA) at 37 °C and 5% CO2. To determine the compound’s toxicity, 3T3 cells were seeded at a density of 10,000 cells/well into 96-well plates (Fisherbrand, Waltham, MA, USA) and cultured as described above. After 16 h, the culture medium was extracted and replaced by supplemented D-MEM without phenol red (Corning, Glendale, AZ, USA) containing individual compounds in the indicated concentrations. Furthermore, 1% sodium dodecyl sulfate (SDS) and 2% dimethyl sulfoxide (DMSO), equivalent to the volume of the DMSO in the highest compound concentration, were used as the cell death and vehicle control, respectively. Moreover, 16 h after compound treatment, the culture medium was extracted again and replaced by fresh supplemented D-MEM without phenol red. Subsequently, 10 µL of 5 mg/mL MTT reagent (Alfa Aesar, Haverhill, MA, USA), dissolved in DMSO, was added to each well, and the cells were incubated for 2 h at 37 °C and 5% CO2. Next, 85 µL of the culture supernatant was removed from each well, mixed with 50 µL of DMSO, and incubated in an optical grade 96-well plate (Fisherbrand, Waltham, MA, USA) in a shaking incubator at 37 °C and 250 rpm. The absorbance of the MTT-treated cell culture supernatant was measured at 540 nm in an ELx808 plate reader (Biotek, Winooski, VT, USA).

USA300LAC cells = assay: Propidium iodide uptake assay (membrane damage); assay type: cell-based, Staphylococcus aureus; details: up to 2× MIC, 1 h exposure
Description: The alkyl pyridinol derivates synthesized in this study are characterized by high lipophilicity. To determine whether and to what extent these compounds incorporate into and disrupt the phospholipid bilayer of the S. aureus cell envelope, we performed a propidium iodide (PI) uptake assay. Given the membrane-impermeable nature of PI, the fluorophore can be used to assess membrane disruption in cells by measuring its non-specific interaction with DNA, which leads to enhanced fluorescence. […] The extent of membrane damage caused by JC-01-074 occurred in a dose-dependent manner.
Figure 4 JC-01-074 causes significant membrane damage in S. aureus. Membrane damage was evaluated via propidium iodide (PI) staining. […] Treatment of USA300LAC with 2.5% DMSO, 4 µg/mL vancomycin, and 0.25% SDS were included as negative and positive controls, respectively. Cells were collected, washed, resuspended in PBS, and stained with 1 µM PI. PI fluorescence was measured (exc./em. wavelengths: 535/615 nm) and normalized to OD600nm. One-way ANOVA, Dunnett’s multiple-comparison test (* p < 0.05, **** p < 0.0001); (n = 3, ±S.D.).
The plasma membrane integrity was determined using the Propidium Iodide Uptake assay, as previously described. Briefly, the overnight cultures of USA300LAC were diluted into fresh TSB media, grown to an early log phase at 37 °C and 300 rpm, and treated with either DMSO, an alkyl pyridinol derivate, vancomycin, or SDS at the indicated concentrations for 1 h. Following two washing steps, the cells were then resuspended in phosphate-buffered saline (PBS), pH = 7.4, and subsequently stained with 1 µM propidium iodide (PI). The PI fluorescence intensity was determined at an excitation wavelength of 535 nm and an emission wavelength of 615 nm.

[5] = 24 h treatment, mean ± S.D., read-out: IC50

| SMILES | MIC (MRSA USA300LAC [1]) [µg/mL] | MIC (MRSA ATCC 33591) [µg/mL] | MIC (MRSA ATCC BAA-44) [µg/mL] | MIC (P. aeruginosa ATCC 27853) [µg/mL] | MIC (S. aureus ATCC 25923) [µg/mL] | interaction with JC-01-074 (sum of FIC values) [2] | IC50 [4, 5] | other results |
| --- | --- | --- | --- | --- | --- | --- | --- | --- |
| CC1(C)S[C@@H]2[C@H](NC(=O)[C@H](N)c3ccccc3)C(=O)N2[C@H]1C(=O)O [Ampicillin] | 2.33 (≈ 6.67 µM) |  |  |  |  | additive (additive/no interaction (FIC 0.5–2.0)) |  |  |
| O=C(N[C@H](CO)[C@H](O)c1ccc([N+](=O)[O-])cc1)C(Cl)Cl [Chloramphenicol] | 4 (≈ 12.4 µM) |  |  |  |  |  |  |  |
| O=C(O)c1cn(C2CC2)c2cc(N3CCNCC3)c(F)cc2c1=O [Ciprofloxacin] |  |  |  |  |  | antagonistic (antagonistic (FIC > 2.0)) |  |  |
| C[C@H]1c2cccc(O)c2C(=O)C2=C(O)[C@]3(O)C(=O)C(C(N)=O)=C(O)[C@@H](N(C)C)[C@@H]3[C@@H](O)[C@@H]21 [Doxycycline] | 0.125 (≈ 0.281 µM) |  |  |  |  | antagonistic (antagonistic (FIC > 2.0)) |  |  |
| CCCCCCCCCC#Cc1cc(O)cc(Br)n1 [EA-02-009] | 32 (≈ 98.7 µM) | 0.5 (≈ 1.54 µM) | 1 (≈ 3.08 µM) | > 128 | 1 (≈ 3.08 µM) |  | 107 ± 82.3 µM | MIC (S. aureus/MRSA strains): 0.5 to 1 µg/mL (≈ 1.54 to 3.08 µM); MBC (MRSA USA300LAC [3]; Staphylococcus aureus, MRSA USA300LAC, concentration at which no CFUs were observed): > 128 µg/mL; bactericidal or bacteriostatic effect (MRSA USA300LAC [3]): bacteriostatic; bactericidal or bacteriostatic effect (MRSA USA300LAC [3]; listed as EA-002-009): no significant killing; IC50 of single biological replicates (Figure S2) ([4]; 24 hours, one value per biological replicate, listed as EA-02-09): 16.1 µg/ml and 17.4 µg/ml and 31.4 µg/ml and 73.2 µg/ml; changes in PI intensity (USA300LAC cells): minimal changes |
| CCCCCCCCCC(=O)N[C@@H](Cc1c[nH]c2ccccc12)C(=O)N[C@H](CC(N)=O)C(=O)N[C@@H](CC(=O)O)C(=O)N[C@@H]1C(=O)NCC(=O)N[C@@H](CCCN)C(=O)N[C@@H](CC(=O)O)C(=O)N[C@H](C)C(=O)N[C@@H](CC(=O)O)C(=O)NCC(=O)N[C@H](CO)C(=O)N[C@@H]([C@H](C)CC(=O)O)C(=O)N[C@@H](CC(=O)c2ccccc2N)C(=O)O[C@@H]1C [daptomycin] |  |  |  |  |  |  |  | MIC (1× MIC as used for microscopy) (MRSA USA300LAC [1]; USA300LAC, stated in figure legend): 4 µg/mL |

Second part, led by results:

| MIC (MRSA USA300LAC [1]) [µg/mL] | MIC (MRSA ATCC 33591) [µg/mL] | MIC (MRSA ATCC BAA-44) [µg/mL] | MIC (P. aeruginosa ATCC 27853) [µg/mL] | MIC (S. aureus ATCC 25923) [µg/mL] | SMILES | interaction with JC-01-074 (sum of FIC values) [2] | IC50 [4, 5] | other results |
| --- | --- | --- | --- | --- | --- | --- | --- | --- |
|  | 32 (≈ 130 µM) | 32 (≈ 130 µM) | > 128 | 32 (≈ 130 µM) | CCCCCCCCCC#Cc1cc(O)ccn1 [EA-02-011] |  | 43.6 µM and 10.7 µg/mL | MIC (S. aureus/MRSA strains): 32 µg/mL (≈ 130 µM); IC50 of single biological replicates (Figure S2) ([4]; 24 hours, one value per biological replicate, listed as EA-02-11): 10.9 µg/ml and 8.6 µg/ml; IC50 ([4]; 24 hours, one value per biological replicate, read-out: IC50 of single biological replicates (Figure S2)): 12.7 µg/mL |
| 1 (≈ 2.09 µM) |  |  |  |  | CNC(C)C1CCC(N)C(OC2C(N)CC(N)C(OC3OCC(C)(O)C(NC)C3O)C2O)O1 (stereo not drawn) [Gentamycin] | additive (additive/no interaction (FIC 0.5–2.0)) |  |  |
|  | > 128 | > 128 | > 128 | > 128 | CCCCCCCCCC#Cc1cc(O)cc(C#CCCCCCCCCC)n1 [JC-01-083] |  | 78.2 µM and 31 µg/mL | antimicrobial activity against S. aureus/MRSA strains (S. aureus/MRSA strains; in words): completely inactive; IC50 of single biological replicates (Figure S2) ([4]; 24 hours, one value per biological replicate, listed as JC-01-83): 32 µg/ml and 43.5 µg/ml and 27.7 µg/ml and 20.8 µg/ml |

— PMC11428593 (Antibiotics, 2024)
